Laboratory results as given in patent US9988361B2, “Anti-enterovirus 71 thiadiazolidine derivative” (JIANGSU KANION PHARMACEUTICAL CO. LTD, priority 2014, dated 2018).

System: EV71 virus strain Shenzhen/120F1/09
Assay: EV71 in-vitro cytopathic effect (CPE) test
Assay type: cell-based, RD cells of human rhabdomyoma
Conditions: Enterovirus A, 72 h; RD cells, EV71 100 TCID50, 3 days, CCK8 readout; read-out: EC50 by EC71 CPE test, EV71
Description: Test of EV71 In-Vitro Cytopathic Effect (CPE) To test the in-vitro antiviral activity and cytotoxicity of a compound to HFMD virus EV71 by means of cytopathic effect (CPE) test. […] Cell line: RD cells of human rhabdomyoma • 3. Cell culture media: DMEM medium added with 10% serum, Penicillin/Streptomycin and L-[…]×) • 4. […] Cell inoculation: digest off the RD cells from the attached state, then dilute them with culture medium to a density of 80000/ml and inoculate 100 μl into the micro wells the 96-well plate. • 2. Dilution of compound: • Step 1: prepare the dry powder of a compound to test into a 10 mM solution in DMSO. Then dilute the compound by three times to eight concentration points. Dilute the reference compounds with the same method. • Step 2: further dilute the diluted solution of the compound in DMSO with cell culture medium. Add 10 μl DMSO solution for each well into 240 μl culture medium. • 3. Add the diluted compound solution by 50 μl each well into the 96-well plate inoculated with cells (double holes, final concentration of DMSO is 1%). • 4. Dilution of virus: dilute EV71 virus solution by 10000 times to a concentration of 100 TCID50/50 μl/. Add the diluted virus solution by 50 μl each well into the 96-well plate. Prepare another 96-well plate to replace the virus with culture medium and similarly inoculate the cells. Add the compound to test the toxicity of compound on cells. • 5. Cultivate the 96-well plate 3 days at the conditions of 37° C. and 5% CO2. • 6. EC50 and CC50 tests: add the cellular activity test reagent CCK8 into the micro-wells by 20 μl/well. Use ELIASA to read the absorbancy at the wavelength of 450 nm and 630 nm. • 7.

SMILES | EC50
CCO/N=C/c1ccc(OCCCCCN2CCN(c3ccnc(N(C)C)c3)S2(=O)=O)cc1 [Embodiment 43, (E)-4-((5-(5-(2-(dimethylamino)-pyridin-4-yl)-1,1-dioxide-1,2,5-thiadiazolidine-2-yl)-pentyl)-oxy)-benzaldehyde-O-ethyl ketoxime] | 100 to 500 nM
CCO/N=C1\CCc2cc(OCCCCCN3CCN(c4cc(N)ncc4F)S3(=O)=O)ccc21 [Embodiment 49, (E)-2-(2-amino-5-fluoro-pyridin-4-yl)-5-(5-((1-(ethoxy-imino)-2,3-dihydro-1H-indene-5-yl)-oxy)-pentyl)-1,2,5-thiadiazolidine-1,1-dioxide] | 100 to 500 nM
CCO/N=C/c1ccc(OCCCCCN2CCN(c3ccncc3)S2(=O)=O)cc1 [Embodiment 7] | < 50 nM
CCO/N=C1\CCc2cc(OCCC(C)(C)CCN3CCN(c4ccnc(N)c4)S3(=O)=O)ccc21 [Embodiment 30, (E)-2-(2-amino-pyridin-4-yl)-5-(5-((1-(ethoxy-imino)-2,3-dihydro-1H-inden-5-yl)-oxy)-3,3-dimethylpentyl)-1,2,5-thiadiazolidine-1,1-dioxide] | < 50 nM
CCO/N=C/c1ccc(OCCCCCN2CCN(c3ccc(C)nn3)S2(=O)=O)cc1 [Embodiment 33, (E)-4-((5-(5-(6-methyl-pyridazin-3-yl)-1,1-dioxide-1,2,5-thiadiazolidine-2-yl)-pentyl)-oxy)-benzaldehyde-O-ethyl ketoxime] | 100 to 500 nM
CCO/N=C/c1ccc(OCCCCCN2CCN(c3ccnc(N)c3)S2(=O)=O)cn1 [Embodiment 56, (E)-5-((5-(5-(2-amino-pyridin-4-yl)-1,1-dioxide-1,2,5-thiadiazolidine-2-yl)-pentyl)-oxy)-picolinaldehyde-O-ethyl ketoxime] | 50 to 100 nM
CCO/N=C1\CCc2cc(OCCCCCN3CCN(c4ccnc(N)c4F)S3(=O)=O)ccc21 [Embodiment 48, (E)-2-(2-amino-3-fluoropyridin-4-yl)-5-(5-((1-(ethoxy-imino)-2,3-dihydro-1H-indene-5-yl)-oxy)-pentyl)-1,2,5-thiadiazolidine-1,1-dioxide] | 100 to 500 nM
CCc1nc(-c2ccc(OCCCCCN3CCN(c4ccncc4)S3(=O)=O)cc2)no1 [Embodiment 10, 2-(5-(4-(5-ethyl-1,2,4-oxadiazol-3-yl)-phenoxy)-pentyl)-5-(pyridin-4-yl)-1,2,5-thiadiazolidine-1,1-dioxide] | 50 to 100 nM
CCO/N=C1\CCc2cc(OCCCCCN3CCN(c4ccnc(NCCO)c4)S3(=O)=O)ccc21 [Embodiment 51, (E)-2-(5-((1-(ethoxy-imino)-2,3-dihydro-1H-inden-5-yl)-oxy)-pentyl)-5-(2-((2-hydroxyethyl)-amino)-pyridin-4-yl)-1,2,5-thiadiazolidine-1,1-dioxide] | < 50 nM
CCO/N=C1\CCc2cc(OCCCCCN3CCN(c4ccncc4)S3(=O)=O)ccc21 [Embodiment 8] | 50 to 100 nM
CCO/N=C1\CCc2cc(OCCCCCN3CCN(c4ccsc4)S3(=O)=O)ccc21 [Embodiment 46, (E)-2-(5-((1-(ethoxy-imino)-2,3-dihydro-1H-inden-5-yl)-oxy)-pentyl)-5-(thiophen-3-yl)-1,2,5-thiadiazolidine-1,1-dioxide] | 100 to 500 nM
CCO/N=C1\CCc2cc(OCCCCCN3CCN(c4ccc(N)nc4)S3(=O)=O)ccc21 [Embodiment 47] | 500 to 1000 nM
CCO/N=C/c1ccc(OCCCCCN2CCN(c3ccc(C#N)cc3)S2(=O)=O)cc1 [Embodiment 44] | 50 to 100 nM
CCO/N=C/c1ccc(OCCCCCN2CCN(c3cc(N)ncn3)S2(=O)=O)cc1 [Embodiment 38, (E)-4-((5-(5-(6-amino-pyrimidin-4-yl)-1,1-dioxide-1,2,5-thiadiazolidine-2-yl)-pentyl)-oxy)-benzaldehyde-O-ethyl ketoxime] | < 50 nM
CCO/N=C1\CCc2cc(OCCCCCN3CCN(c4ccnnc4)S3(=O)=O)ccc21 [Embodiment 70] | 100 to 500 nM
CCO/N=C/c1ccc(OCCCCCN2CCN(c3ccnc(NCCO)c3)S2(=O)=O)cc1 [Embodiment 40, (E)-4-((5-(5-(2-((2-hydroxyethyl)-amino)-pyridin-4-yl)-1,1-dioxide-1,2,5-thiadiazolidine-2-yl)-pentyl)-oxy)-benzaldehyde-O-ethyl ketoxime] | < 50 nM
CCO/N=C/c1ccc(OCCCCCN2CCN(c3nccs3)S2(=O)=O)cc1 [Embodiment 35, (E)-4-((5-(1,1-dioxide-5-(thiazol-2-yl)-1,2,5-thiadiazolidine-2-yl)-pentyl)-oxy)-benzaldehyde-O-ethyl ketoxime] | 100 to 500 nM
CCn1nnc(-c2ccc(OCCC(C)(C)CCN3CCN(c4ccnc(N)c4)S3(=O)=O)cc2)n1 [Embodiment 76, 4-(5-(5-(4-(2-ethyl-tetrazol-5-yl)-phenoxy)-3,3-dimethyl-pentyl)-1,1-dioxo-1,2,5-thiadiazolidine-2-yl)-pyridin-2-amine] | < 50 nM
CCO/N=C/c1ccc(OCCCCCN2CCN(c3ccc(Cl)nn3)S2(=O)=O)cc1 [Embodiment 34, (E)-4-((5-(5-(6-chloro-pyridazin-3-yl)-1,1-dioxide-1,2,5-thiadiazolidine-2-yl)-pentyl)-oxy)-benzaldehyde-O-ethyl ketoxime] | 500 to 1000 nM

Further lines, results first:

EC50 | SMILES
50 to 100 nM | CCCc1nc2ccc(OCCCCCN3CCN(c4ccnc(N)c4)S3(=O)=O)cc2o1 [Embodiment 66, 2-(2-amino-pyridin-4-yl)-5-(5-((2-propyl-benzo[d]oxazole-6-yl)-oxy)-pentyl)-1,2,5-thiadiazolidine-1,1-dioxide]
< 50 nM | CC(C)O/N=C1\CCc2cc(OCCCCCN3CCN(c4ccnc(N)c4)S3(=O)=O)ccc21 [Embodiment 58]
< 50 nM | Cn1nnc(-c2ccc(OCCCCCN3CCN(c4ccnc(N)c4)S3(=O)=O)cc2)n1 [Embodiment 61, 2-(2-amino-pyridin-4-yl)-5-(5-(4-(2-methyl-2H-tetrazol-5-yl)-phenoxy)-pentyl)-1,2,5-thiadiazolidine-1,1-dioxide]
100 to 500 nM | CCOc1noc2cc(OCCC(O)CCN3CCN(c4ccncc4)S3(=O)=O)ccc12 (stereo not drawn) [Embodiment 71, 2-(5-((3-ethoxy-benzo[d]isoxazole-6-yl)-oxy)-3-hydroxy-pentyl)-5-(pyridin-4-yl)-1,2,5-thiadiazolidine-1,1-dioxide]
50 to 100 nM | CCOc1noc2cc(OCCC(F)CCN3CCN(c4ccncc4)S3(=O)=O)ccc12 (stereo not drawn) [Embodiment 72, 2-(5-((3-ethoxy-benzo[d]isoxazole-6-yl)-oxy)-3-fluoro-pentyl)-5-(pyridin-4-yl)-1,2,5-thiadiazolidine-1,1-dioxide]
100 to 500 nM | CCO/N=C/c1ccc(OCCCCN2CCN(c3ccnc(N)c3)S2(=O)=O)cc1 [Embodiment 26]
< 50 nM | CCOc1noc2cc(OCCCCCN3CCN(c4ccnc(N)c4)S3(=O)=O)ccc12 [Embodiment 28, 4-(5-(5-((3-ethoxy-1,2-benzoxazol-6-yl)-oxy)-pentyl)-1,1-dioxide-1,2,5-thiadiazolidine-2-yl)-pyridin-2-amine]
100 to 500 nM | CCO/N=C1\CCCc2cc(OCCCCCN3CCN(c4ccnc(N)c4)S3(=O)=O)ccc21 [Embodiment 65]
< 50 nM | CCOc1noc2cc(OCCC(C)CCN3CCN(c4ccncc4)S3(=O)=O)ccc12 (stereo not drawn) [Embodiment 15, 2-(5-((3-ethoxy-benzo[d]isoxazole-6-yl)-oxy)-3-methyl-pentyl)-5-(pyridin-4-yl)-1,2,5-thiadiazolidine-1,1-dioxide]
500 to 1000 nM | CCO/N=C(\CC)c1ccc(OCCCCCN2CCN(c3ccnc(N)c3)S2(=O)=O)cc1 [Embodiment 54, (E)-2-(2-amino-pyridin-4-yl)-5-(5-(4-(1-(ethoxyimino)-propyl)-phenoxy)-pentyl)-1,2,5-thiadiazolidine-1,1-dioxide]
500 to 1000 nM | Nc1cc(N2CCN(CCCCCOc3ccc(C=O)cc3)S2(=O)=O)ccn1 [Embodiment 24, 4-((5-(5-(2-aminopyridin-4-yl)-1,1-dioxide-1,2,5-thiadiazolidine-2-yl)-pentyl)-oxy)-benzaldehyde]
< 50 nM | CCOc1noc2cc(OCCCCCN3CCN(c4ccnc(NC)c4)S3(=O)=O)ccc12 [Embodiment 18, 2-(5-((3-ethoxy-benzo[d]isoxazol-6)-oxo)-pentyl)-5-(2-(methylamino)-pyridine-4)-1,2,5-thiadiazoline-1,1-dioxide]
< 50 nM | CC(C)n1nnc(-c2ccc(OCCCCCN3CCN(c4ccnc(N)c4)S3(=O)=O)cc2)n1 [Embodiment 60]
< 50 nM | CCO/N=C1\CCc2cc(OCCCCCN3CCN(c4ccnc(N)c4)S3(=O)=O)cc(F)c21 [Embodiment 59]
